Measurements as given in the NIST ThermoML archive (doi:10.1016/j.jct.2013.01.032).
± gives the expanded uncertainty stated by the source.

Tests used:
[1] = osmotic coefficient (dimensionless); mn = molality of the nth substance listed, in mol/kg; settings: 323.15 K, Liquid, Knauer Osmometer
[2] = mn = molality of the nth substance listed, in mol/kg; settings: 101 kPa, Liquid; for speed of sound: Sing-around technique in a fixed-path interferometer; for mass density: Vibrating tube method

CCCCn1cc[n+](C)c1.O=S(=O)([O-])C(F)(F)F [1-butyl-3-methylimidazolium trifluoromethanesulfonate] + CCC(C)O
[1]
Settings	osmotic coefficient
m1 = 0.0481	0.914 ± 0.014
m1 = 0.0784	0.806 ± 0.015
m1 = 0.1008	0.771 ± 0.015
m1 = 0.2021	0.657 ± 0.017
m1 = 0.2917	0.568 ± 0.02
m1 = 0.3846	0.507 ± 0.021
m1 = 0.485	0.472 ± 0.022
m1 = 0.7679	0.428 ± 0.024
m1 = 1.126	0.379 ± 0.025
m1 = 1.523	0.334 ± 0.026
m1 = 1.909	0.318 ± 0.027
m1 = 2.282	0.31 ± 0.027
m1 = 2.574	0.296 ± 0.028
m1 = 2.994	0.279 ± 0.028
m1 = 3.448	0.275 ± 0.028

[2]
Settings	mass density, 293.15 K [kg/m3]	mass density, 308.15 K [kg/m3]	mass density, 323.15 K [kg/m3]	speed of sound, 293.15 K [m/s]	speed of sound, 308.15 K [m/s]	speed of sound, 323.15 K [m/s]
m1 = 0.098	815.49 ± 0.25	802.94 ± 0.26	789.53 ± 0.26	1231 ± 1	1177.6 ± 0.9	1122.9 ± 0.9
m1 = 0.149	819.88 ± 0.25	807.37 ± 0.25	794.01 ± 0.26	1231.4 ± 1	1178.3 ± 0.9	1124.1 ± 0.9
m1 = 0.201	824.3 ± 0.24	811.78 ± 0.25	798.46 ± 0.25	1231.9 ± 1	1179.2 ± 1	1125.5 ± 0.9
m1 = 0.249	828.21 ± 0.24	815.73 ± 0.24	802.45 ± 0.25	1232 ± 1	1179.6 ± 1	1126.3 ± 0.9
m1 = 0.498	847.84 ± 0.23	835.4 ± 0.23	822.26 ± 0.24	1233.7 ± 1	1182.7 ± 1	1130.8 ± 1
m1 = 1.002	882.87 ± 0.22	870.47 ± 0.22	857.52 ± 0.23	1238.2 ± 1	1189.5 ± 1	1140.3 ± 1
m1 = 1.239	897.53 ± 0.21	885.16 ± 0.21	872.26 ± 0.22	1240.2 ± 1	1192.4 ± 1	1144 ± 1
m1 = 1.522	913.81 ± 0.21	901.44 ± 0.21	888.61 ± 0.21	1243.1 ± 1.1	1196.2 ± 1	1148.8 ± 1
m1 = 1.763	926.62 ± 0.2	914.26 ± 0.2	901.49 ± 0.21	1245.6 ± 1.1	1199.4 ± 1	1152.7 ± 1
m1 = 2.497	961.11 ± 0.2	948.77 ± 0.2	936.11 ± 0.21	1253.6 ± 1.1	1209.2 ± 1.1	1164.3 ± 1.1
m1 = 2.935	978.86 ± 0.2	966.54 ± 0.2	953.94 ± 0.2	1258.2 ± 1.1	1214.5 ± 1.1	1170.8 ± 1.1
